Experimental data published in patent US20240398737A1, “FUNCTIONALIZED LONG-CHAIN HYDROCARBON MONO- AND DI-CARBOXYLIC ACIDS AND DERIVATIVES THEREOF, AND THEIR USE FOR THE PREVENTION OR TREATMENT OF DISEASE” (Espervita Therapeutics, Inc., priority 2021, published 2024).

Experiments:
NEK2 = NEK2 (Homo sapiens (Human), UniProt P51955); assay: Wild type kinase screen: NEK2; format: biochemical; conditions: compound at 10 μM, 10 μM ATP, Data 1 and Data 2 duplicates
human ACLY = human ACLY (Homo sapiens (Human), UniProt P53396); assay: ATP-citrate lyase (ACLY) enzymatic assay (ADP-Glo); format: biochemical; design: key to Compound IC50 (M) ACLY: *: No detectable inhibition or compound activity; conditions: recombinant human ACLY; 10 concentrations from 300 μM; Runs 1-3
Method: ATP citrate lyase was obtained from Sino Biological Inc. Cat #11769-H07B, Lot #LC08DE1701. It was prepared from a DNA sequence encoding the human ACLY (P53396) (Met 1-Met 1101) expressed in Baculovirus-Insect Cells, with a polyhistidine tag at the N-terminus. The recombinant human ACLY consists of 1120 amino acids and has a calculated molecular mass of 123 kDa. It migrates as an approximately 110 kDa band in SDS-PAGE under reducing conditions. The enzyme came as a lyophilized powder in sterile 20 mM Tris, 500 mM NaCl, pH 8.0, 10% glycine. Normally 5%-8% trehalose and mannitol are added as protectants before lyophilization. The recombinant human ACLY from Sino Biological was formulated in 45 mM Tris-HCl, pH 8.0, 124 mM NaCl, 2.4 mM KCl, 18 mM glutathione, 10% glycerol, and 3 mM DTT.
To detect ADP produced from ACL assay, the ADP-Glo™ assay format from Promega, Madison, WI, was used, to detect the conversion of ATP to ADP. […] This assay is performed in two steps: i) after the ACL-mediated enzymatic reaction that utilizes ATP and produces ADP, ADP-Glo™ Reagent is added to terminate the kinase reaction and deplete the remaining ATP, and ii) the Kinase Detection Reagent is added to convert ADP to ATP and allow the newly synthesized ATP to be measured using a luciferase/luciferin reaction. The light generated, measured in a luminometer, correlates to the amount of ADP generated in the ACL assay, which is indicative of ACL activity.
Data represent nM or μM ADP produced, % Activity (relative to no inhibitor controls), and curve fits were performed by GraphPad Prism software. The IC50 concentration-response curves were generated for ADPGlo™ using recombinant human ACL from Sino Biologicals Inc.

C57BL6/J mice = assay: Indirect calorimetry (CLAMS) in fructose-fed C57BL6/J mice; format: in vivo, mouse; conditions: 100 mg/kg oral gavage
Method: Materials and Methods. All experiments were carried out using the methods approved by the Animal Research Ethics Board at McMaster University, Canada (Steinberg Laboratory Animal Utilization Protocol #16-12-42). 8-Week-old male C57BL6/J mice were ordered from Jackson Laboratory, Bar Harbor, Maine and housed at the McMaster University Central Animal Facility. Animals were housed in the ventilated cages racks system and provided with ad libitum access to normal chow diet (Teklad 8640 22/5 rodent diet, procured from Envigo, Mississauga ON) and water supplemented with fructose (30% weight/volume, made fresh weekly) for at least 2-weeks before testing commenced. A 12-hour light/dark cycle and a temperature of 23±2° C. were maintained throughout the animal housing. Data were analyzed using one-way analyses of variance followed by a Tukey's multiple comparisons post hoc test where appropriate. All statistical analysis was carried out using GraphPad Prism 8 software. A p-value of less than or equal 0.05 was considered significant.
Experimental and Results. Respiratory Exchange Ratio (RER) and related metabolic parameters were measured using the Comprehensive Lab Animal Monitoring System (CLAMS, Columbus Instruments, Columbus, Ohio). Animals were placed in CLAMS and allowed ad libitum access to normal chow diet and water supplemented with fructose (30% weight/volume) for at least 24 hours before the experiment began. At 5:30 p.m. chow diet was removed and water containing 30% fructose was replaced with normal tap water. Animals were fasted overnight until food and 30% fructose water were made accessible the next day at 7:30 a.m. (14 hours total). Animals were allowed to feed ad libitum for ˜2 hours. RER was monitored and those animals with RER values >1 were administered either vehicle (1.5% Carboxymethyl cellulose and 0.2% Tween 20) alone or vehicle containing Compound I-1 or Compound I-32 at a dose of 100 mg/kg via oral gavage. Animals remained in the metabolic cages and RER, activity level, locomotor activity, and food intake were monitored for 24 hours. Metabolic parameters were calculated using Oxymax software included with Comprehensive Lab Animal Monitoring System (CLAMS). RER was calculated as the […] given by the following equation: […]
Locomotor activity was calculated as the total number of beam breaks in each cage over a 24-hour period. The heat (calorific value, CV) was calculated by the following equation: […]

[1] = tested on: Mouse primary hepatocytes; assay: 14C-acetate incorporation into total lipids in mouse primary hepatocytes; format: cell-based; conditions: incorporation of 14C-acetate in primary mouse hepatocyte total lipids, 4 hours, 100 μM
Method: After perfusion, collagen digested liver cells were re-suspended in William's E media (11 mM glucose) (Gibco) supplemented with 10% fetal bovine serum (FBS) (Gibco), 2 mM L-glutamine (Gibco) and 1% Antibiotic-Antimycotic (Gibco) mixture and seeded in white opaque 96-well plates. On the following day, the cells were serum-starved for 2 hours, then treated with 0 μM, 0.1 μM, 0.3 μM, 0.5 μM, 1 μM, 3 μM, 10 μM, and 100 μM of Compound I-32, Compound I-1, Compound III-1 or Reference Compound (e.g., any of Compounds A-E or bempedoic acid) in the presence of ^14C-Acetate (1 μCi/ml, PerkinElmer). Each of Compound I-32, Compound I-1, Compound III-1, and Reference Compound was solubilized in 100% DMSO to a final concentration of 100 mM stock solution. In the experimental condition, the stock solution was diluted in serum free media (William's E media (11 mM glucose) (Gibco), 2 mM L-glutamine (Gibco) and 1% Antibiotic-Antimycotic) to yield the desired concentration of each compound. […] After 4 hours of treatment, the plates were washed two times with PBS (×1) and 100 μL microscint fluid (Microscint 0, part #601361) was added in each well. Plates were wrapped with aluminum foil and were shaken at 250 rpm for 2 h. After 2 h of shaking, ^14C incorporation into lipid was determined by liquid scintillation counting using a TopCount NXT Microplate Scintillation and Luminescence Counter (Perkin Elmer).
The effects of Compound I-32, Compound I-1, and Compound III-1 on mouse primary hepatocyte lipogenesis are represented in Table 13. Each Compound was assayed at a concentration of 0 μM (vehicle control), 0.1 μM, 0.3 μM, 0.5 μM, 1 μM, 3 μM, 10 μM, and 100 μM, unless otherwise noted. Statistically significant inhibition was determined by one-way ANOVA and Dennett's post hoc test where appropriate. […] IC50 values were determined by nonlinear regression. All statistical analyses were carried out using GraphPad Prism 8 software. A p-value of less than or equal 0.05 was considered significant.

human ACLY, sequence (P53396 whole entry): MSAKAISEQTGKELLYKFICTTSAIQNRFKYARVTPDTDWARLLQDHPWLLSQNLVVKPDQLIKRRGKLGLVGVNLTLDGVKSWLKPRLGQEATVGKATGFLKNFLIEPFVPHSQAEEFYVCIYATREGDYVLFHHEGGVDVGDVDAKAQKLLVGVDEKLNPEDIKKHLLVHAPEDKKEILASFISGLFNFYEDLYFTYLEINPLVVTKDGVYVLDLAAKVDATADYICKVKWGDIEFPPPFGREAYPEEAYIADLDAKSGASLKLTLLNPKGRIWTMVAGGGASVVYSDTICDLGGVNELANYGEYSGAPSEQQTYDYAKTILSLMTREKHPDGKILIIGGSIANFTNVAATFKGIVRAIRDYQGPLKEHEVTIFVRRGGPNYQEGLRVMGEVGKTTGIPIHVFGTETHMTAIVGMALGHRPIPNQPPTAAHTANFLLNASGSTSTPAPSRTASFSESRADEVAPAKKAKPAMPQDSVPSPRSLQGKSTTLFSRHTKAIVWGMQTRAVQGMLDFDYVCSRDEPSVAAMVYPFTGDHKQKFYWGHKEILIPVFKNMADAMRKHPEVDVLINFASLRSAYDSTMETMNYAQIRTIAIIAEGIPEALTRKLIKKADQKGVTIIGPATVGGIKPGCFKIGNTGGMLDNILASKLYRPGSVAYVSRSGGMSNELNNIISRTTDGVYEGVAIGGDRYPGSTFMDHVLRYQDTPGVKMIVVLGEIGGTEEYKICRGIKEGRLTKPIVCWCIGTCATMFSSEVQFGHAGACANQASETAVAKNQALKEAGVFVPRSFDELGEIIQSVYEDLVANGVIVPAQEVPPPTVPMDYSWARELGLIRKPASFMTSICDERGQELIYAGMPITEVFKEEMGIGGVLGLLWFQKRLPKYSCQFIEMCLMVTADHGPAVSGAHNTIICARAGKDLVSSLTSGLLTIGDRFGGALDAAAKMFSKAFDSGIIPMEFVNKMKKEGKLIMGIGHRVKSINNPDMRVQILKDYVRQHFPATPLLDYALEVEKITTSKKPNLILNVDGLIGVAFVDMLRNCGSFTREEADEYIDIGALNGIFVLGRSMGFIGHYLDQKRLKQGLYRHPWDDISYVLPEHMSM
NEK2, sequence (P51955 whole entry, species assumed): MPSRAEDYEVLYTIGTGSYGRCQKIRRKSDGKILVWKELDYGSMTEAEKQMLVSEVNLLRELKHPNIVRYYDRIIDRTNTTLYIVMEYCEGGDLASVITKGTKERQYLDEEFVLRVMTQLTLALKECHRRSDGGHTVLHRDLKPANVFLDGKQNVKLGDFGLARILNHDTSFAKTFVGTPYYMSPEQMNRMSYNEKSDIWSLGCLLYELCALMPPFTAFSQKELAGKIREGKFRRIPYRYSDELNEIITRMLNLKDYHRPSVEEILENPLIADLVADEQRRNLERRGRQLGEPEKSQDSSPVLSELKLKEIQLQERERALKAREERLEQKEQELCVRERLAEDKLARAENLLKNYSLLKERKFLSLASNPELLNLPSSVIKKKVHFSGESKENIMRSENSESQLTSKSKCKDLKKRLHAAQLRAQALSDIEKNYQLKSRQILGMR

| Structure (SMILES) | % Enzyme Activity (relative to DMSO controls) (NEK2) | Compound IC50 (M) ACLY (human ACLY) | Duration of the RER reduction (C57BL6/J mice) | Respiratory exchange ratio (RER) compared to vehicle treated group (C57BL6/J mice) | Time to detection of the RER reduction after treatment (C57BL6/J mice) | % change from control at 100 μM ± SEM(n) [1] |
| --- | --- | --- | --- | --- | --- | --- |
| CC(C)(CCCCc1ccc(CCCCC(C)(C)C(=O)O)cc1)C(=O)O [Compound I-1, 6-[4-(5-carboxy-5-methylhexyl)-phenyl]-2,2-dimethylhexanoic acid] | 85.17% | * | 6 h | significant reduction | ≤ 1 h | −84 ± 1.0 (n = 6) % |
| CC(C)(CCCCc1cccc(CCCCC(C)(C)C(=O)O)c1)C(=O)O [Compound I-32, 6-[3-(5-carboxy-5-methylhexyl)-phenyl]-2,2-dimethylhexanoic acid] | 87.7% | * | 6 h | significant reduction | ≤ 1 h | −82 ± 2.8 (n = 6) % |
